Source: patent publication US5336768A, “Antibacterial cephalosporin compounds” (Hoffmann-La Roche Inc., priority 1988, dated 1994)
Where a name gives a salt, the structure may show the parent alone. Read-outs that look alike come from different tables or passages of the source.

Tests used:
Experiment in all cases: In vitro MIC, Agar Dilution Method
Type in all cases: cell-based
Str. pneumoniae 6301 = details: Streptococcus pneumoniae
Source text: (§1) The in vitro activity of the compounds of the present invention as measured by the Minimum Inhibitory Concentration (MIC) in micrograms/ml utilizing the Agar Dilution Method against a variety of Gram-positive and Gram-negative organisms, is as follows: […]

E. coli ATCC 25922 = details: Escherichia coli, ATCC25922
Source text: as §1

Prot. Vulqaris 1028 BC = details: read-out: In Vitro MIC
Source text: as §1

Prot. mirabilis 90 = test system: Prot. mirabilis 90
Source text: as §1

Str. pyogenes 4 = details: Streptococcus pyogenes
Source text: as §1

Str. faecalis ATCC 29212 = details: Enterococcus faecalis, ATCC29212
Source text: as §1

Ps. aeruginosa 8780 = details: Pseudomonas aeruginosa
Source text: as §1

Staph. aureus ATCC 29213 = details: Staphylococcus aureus
Source text: as §1

Staph. aureus 67 = details: Staphylococcus aureus
Source text: as §1

Ser. marcescens 1071 = details: Serratia marcescens
Source text: as §1

K. pneumoniae A = details: Klebsiella pneumoniae, read-out: In Vitro MIC
Source text: as §1

Ps. aeruginosa 765 = test system: Ps. aeruginosa 765
Source text: as §1

Enter. cloacae 5699 = details: Enterobacter cloacae
Source text: as §1

Cit. freundii BS-16 = details: Citrobacter freundii, BS16
Source text: as §1

Ps. aeruginosa 18SH = details: Pseudomonas aeruginosa, read-out: In Vitro MIC
Source text: as §1

Staph. aureus 753 = test system: Staph. aureus 753
Source text: as §1

Prot. vulgaris ATCC 6380 = details: Proteus vulgaris
Source text: as §1

[1] = test system: Ps. aeruginosa ATCC 27853; details: Pseudomonas aeruginosa
Source text: as §1

Staph. aureus Smith = details: Staphylococcus aureus, read-out: In Vitro MIC
Source text: as §1

E. coli 257 = details: Escherichia coli
Source text: as §1

Staph. aureus 10598 = test system: Staph. aureus 10598
Source text: as §1

Ser. marcescens SM = details: Serratia marcescens, read-out: In Vitro MIC
Source text: as §1

Enter. cloacae P99 = details: Enterobacter cloacae
Source text: as §1

Ps. aeruginosa 5712 = details: Pseudomonas aeruginosa
Source text: as §1

E. coli TEM-1 = details: Escherichia coli, TEM1, read-out: In Vitro MIC
Source text: as §1

Structure (SMILES): CCn1cc(C(=O)O)c(=O)c2cc(F)c(N3CCN(C(=O)OCC4=C(C(=O)O)N5C(=O)[C@@H](NC(=O)/C(=N\OC)c6csc(N)n6)[C@H]5SC4)CC3)cc21 [Compound A, [6R-[6α,7β(Z)]]-7-[[(2-amino-4-thiazolyl) (methoxyimino)acetyl]amino]-3-[[[[4-(3-carboxy-1-ethyl-6-fluoro-1,4-dihydro-4-oxo-7-quinolinyl) -1-piperazinyl]carbonyl]oxy]methyl]-8-oxo-5-thia-1-azabicyclo[4.2.0]oct-2-ene-2-carboxylic acid sodium salt]
- MIC (Str. pneumoniae 6301): 0.0157 µg/mL
- MIC (E. coli ATCC 25922): 0.25 µg/mL
- MIC (Prot. Vulqaris 1028 BC; Prot. Vulqaris 1028 BC, Agar Dilution Method): 0.125 µg/mL
- MIC (Prot. mirabilis 90; Proteus mirabilis, 90, read-out: In Vitro MIC): 0.25 µg/mL
- MIC (Str. pyogenes 4): 0.0157 µg/mL
- MIC (Str. faecalis ATCC 29212): 0.5 µg/mL
- MIC (Ps. aeruginosa 8780): 4 µg/mL
- MIC (Staph. aureus ATCC 29213; ATCC29213, Staph. aureus ATCC 29213, Agar Dilution Method, read-out: In Vitro MIC): 2 µg/mL
- MIC (Staph. aureus 67): 4 µg/mL
- MIC (Ser. marcescens 1071): 0.5 µg/mL
- MIC (K. pneumoniae A; K. pneumoniae A, Agar Dilution Method): 0.5 µg/mL
- MIC (Ps. aeruginosa 765; Pseudomonas aeruginosa, Ps. aeruginosa 765, Agar Dilution Method, read-out: In Vitro MIC): 8 µg/mL
- MIC (Enter. cloacae 5699): 0.5 µg/mL
- MIC (Cit. freundii BS-16): 0.5 µg/mL
- MIC (Ps. aeruginosa 18SH; Ps. aeruginosa 18SH, Agar Dilution Method): 4 µg/mL
- MIC (Staph. aureus 753; Staphylococcus aureus, Staph. aureus 753, Agar Dilution Method, read-out: In Vitro MIC): 4 µg/mL
- MIC (Prot. vulgaris ATCC 6380; ATCC6380, Prot. vulgaris ATCC 6380, Agar Dilution Method, read-out: In Vitro MIC): 0.0625 µg/mL
- MIC ([1]; ATCC27853, Ps. aeruginosa ATCC 27853, Agar Dilution Method, read-out: In Vitro MIC): 8 µg/mL
- MIC (Staph. aureus Smith; Staph. aureus Smith, Agar Dilution Method): 1 µg/mL
- MIC (E. coli 257): 0.25 µg/mL
- MIC (Staph. aureus 10598; Staphylococcus aureus, Staph. aureus 10598, Agar Dilution Method, read-out: In Vitro MIC): 2 µg/mL
- MIC (Ser. marcescens SM): 0.25 µg/mL
- MIC (Enter. cloacae P99): 0.5 µg/mL
- MIC (Ps. aeruginosa 5712): 16 µg/mL
- MIC (E. coli TEM-1): 0.25 µg/mL

Structure (SMILES): CO/N=C(\C(=O)N[C@@H]1C(=O)N2C(C(=O)O)=C(COC(=O)N3CCN(c4cc5c(cc4F)c(=O)c(C(=O)O)cn5C4CC4)CC3)CS[C@H]12)c1csc(N)n1 [Compound B, [6R-[6α,7β(Z)]]-7-[[(2-amino-4-thiazolyl) (methoxyimino)acetyl]amino]-3-[[[[4-(3-carboxy-1-cyclopropyl-6-fluoro-1,4-dihydro-4-oxo-7-quinolinyl)-1-piperazinyl]carbonyl]oxy]methyl]-8-oxo-5-thia-1-azabicyclo[4.2.0]oct-2-ene-2-carboxylic acid sodium salt]
- MIC (Str. pneumoniae 6301): 0.0157 µg/mL
- MIC (E. coli ATCC 25922): 0.0625 µg/mL
- MIC (Prot. Vulqaris 1028 BC): 0.0625 µg/mL
- MIC (Prot. mirabilis 90; Proteus mirabilis, Prot. mirabilis 90, Agar Dilution Method, read-out: In Vitro MIC): 0.25 µg/mL
- MIC (Str. pyogenes 4): 0.0157 µg/mL
- MIC (Str. faecalis ATCC 29212): 0.25 µg/mL
- MIC (Ps. aeruginosa 8780): 2 µg/mL
- MIC (Staph. aureus ATCC 29213; ATCC29213, read-out: In Vitro MIC): 1 µg/mL
- MIC (Staph. aureus 67): 2 µg/mL
- MIC (Ser. marcescens 1071): 0.25 µg/mL
- MIC (K. pneumoniae A): 0.0625 µg/mL
- MIC (Ps. aeruginosa 765; Pseudomonas aeruginosa, 765, read-out: In Vitro MIC): 1 µg/mL
- MIC (Enter. cloacae 5699): 0.125 µg/mL
- MIC (Cit. freundii BS-16): 0.125 µg/mL
- MIC (Ps. aeruginosa 18SH; 18SH): 1 µg/mL
- MIC (Staph. aureus 753; Staphylococcus aureus, 753, read-out: In Vitro MIC): 1 µg/mL
- MIC (Prot. vulgaris ATCC 6380; ATCC6380, read-out: In Vitro MIC): 0.0625 µg/mL
- MIC ([1]; ATCC27853, read-out: In Vitro MIC): 1 µg/mL
- MIC (Staph. aureus Smith): 0.5 µg/mL
- MIC (E. coli 257): 0.0625 µg/mL
- MIC (Staph. aureus 10598; Staphylococcus aureus, 10598, read-out: In Vitro MIC): 1 µg/mL
- MIC (Ser. marcescens SM; Ser. marcescens SM, Agar Dilution Method): 0.125 µg/mL
- MIC (Enter. cloacae P99): 0.0313 µg/mL
- MIC (Ps. aeruginosa 5712): 4 µg/mL
- MIC (E. coli TEM-1): 0.0625 µg/mL
